Patent publication US9540348B2, “Imidazole-1-yl pyrimidine derivatives, or pharmacutically acceptable salt thereof, and pharmaceutic composition comprising the same as an active ingredient” (Industry-University Cooperation Foundation Hanyang …, priority 2015, dated 2017)

Tests used:
Assay in all cases: Kinase panel screening
Type in all cases: biochemical
BRAF = BRAF (Homo sapiens, UniProt P15056); settings: 10 μM concentration
Procedure: (§1) To Compound 10c of Example 23, kinase panel screening was carried out to 32 kinds of kinases in 10 μM concentration and the results are listed in the following Table 2.

FGFR3 = FGFR3 (Homo sapiens, UniProt P22607); settings: 10 μM concentration; read-out: Inhibition Rate (Unit: %) FGFR3
Procedure: as §1

ABL1 = ABL1 (Homo sapiens, UniProt P00519); settings: 10 μM concentration; read-out: Inhibition Rate (Unit: %) ABL1
Sequence of ABL1 (P00519 whole entry, species assumed): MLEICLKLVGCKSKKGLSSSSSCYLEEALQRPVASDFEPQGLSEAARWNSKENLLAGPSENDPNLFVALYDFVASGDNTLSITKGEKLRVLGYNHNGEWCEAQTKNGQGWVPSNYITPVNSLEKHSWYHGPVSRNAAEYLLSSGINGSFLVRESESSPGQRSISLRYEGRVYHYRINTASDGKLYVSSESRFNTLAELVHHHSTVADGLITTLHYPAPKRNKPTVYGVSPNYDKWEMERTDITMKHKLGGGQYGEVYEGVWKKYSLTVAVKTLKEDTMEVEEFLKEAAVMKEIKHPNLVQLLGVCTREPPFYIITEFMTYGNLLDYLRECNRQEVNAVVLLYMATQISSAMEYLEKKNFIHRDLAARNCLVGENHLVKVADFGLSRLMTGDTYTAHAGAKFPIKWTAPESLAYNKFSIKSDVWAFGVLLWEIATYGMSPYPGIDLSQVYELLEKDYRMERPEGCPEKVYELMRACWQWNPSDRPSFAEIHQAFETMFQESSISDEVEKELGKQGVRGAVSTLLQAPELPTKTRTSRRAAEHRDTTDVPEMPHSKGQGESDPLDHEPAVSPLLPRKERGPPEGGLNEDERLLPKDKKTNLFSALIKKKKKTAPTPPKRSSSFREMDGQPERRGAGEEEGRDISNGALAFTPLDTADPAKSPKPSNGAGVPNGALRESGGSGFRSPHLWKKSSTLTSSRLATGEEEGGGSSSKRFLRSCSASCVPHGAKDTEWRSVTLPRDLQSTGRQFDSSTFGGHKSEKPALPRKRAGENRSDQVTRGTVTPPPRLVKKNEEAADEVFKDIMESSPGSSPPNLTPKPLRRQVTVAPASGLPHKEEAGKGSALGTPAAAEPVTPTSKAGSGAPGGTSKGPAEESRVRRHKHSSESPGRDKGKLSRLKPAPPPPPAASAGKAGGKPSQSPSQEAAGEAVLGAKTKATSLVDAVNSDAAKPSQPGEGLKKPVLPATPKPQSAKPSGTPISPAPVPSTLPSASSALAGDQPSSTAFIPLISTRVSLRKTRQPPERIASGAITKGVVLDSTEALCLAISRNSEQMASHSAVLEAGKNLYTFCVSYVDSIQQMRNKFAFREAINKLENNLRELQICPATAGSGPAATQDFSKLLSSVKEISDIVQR
Procedure: as §1

AKT1 = AKT1 (Homo sapiens, UniProt P31749); settings: 10 μM concentration; read-out: Inhibition Rate (Unit: %) AKT1
Sequence of AKT1 (P31749 whole entry, species assumed): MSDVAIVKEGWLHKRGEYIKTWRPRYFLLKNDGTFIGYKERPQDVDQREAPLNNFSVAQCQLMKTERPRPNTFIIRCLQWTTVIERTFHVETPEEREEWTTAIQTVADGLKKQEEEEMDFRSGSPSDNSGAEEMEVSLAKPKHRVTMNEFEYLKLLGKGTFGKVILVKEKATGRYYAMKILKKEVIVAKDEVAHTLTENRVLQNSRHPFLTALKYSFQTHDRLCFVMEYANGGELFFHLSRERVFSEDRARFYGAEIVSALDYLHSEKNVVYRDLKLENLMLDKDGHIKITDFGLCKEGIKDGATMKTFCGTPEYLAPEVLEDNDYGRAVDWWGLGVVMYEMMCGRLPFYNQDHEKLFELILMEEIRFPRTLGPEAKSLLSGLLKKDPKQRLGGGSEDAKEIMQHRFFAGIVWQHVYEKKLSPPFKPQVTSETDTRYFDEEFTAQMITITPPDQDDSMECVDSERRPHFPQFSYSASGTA
Procedure: as §1

RON/MST1R = RON/MST1R (Homo sapiens, UniProt Q04912); settings: 10 μM concentration; read-out: Inhibition Rate (Unit: %) RON/MST1R
Procedure: as §1

JAK3 = JAK3 (Homo sapiens, UniProt P52333); settings: 10 μM concentration; read-out: Inhibition Rate (Unit: %) JAK3
Procedure: as §1

PKA = settings: 10 μM concentration
Procedure: as §1

SYK = SYK (Homo sapiens, UniProt P43405); settings: 10 μM concentration; read-out: Inhibition Rate (Unit: %) SYK
Procedure: as §1

ROS/ROS1 = ROS/ROS1 (Homo sapiens, UniProt P08922); settings: 10 μM concentration; read-out: Inhibition Rate (Unit: %) ROS/ROS1
Sequence of ROS/ROS1 (P08922 28-2347): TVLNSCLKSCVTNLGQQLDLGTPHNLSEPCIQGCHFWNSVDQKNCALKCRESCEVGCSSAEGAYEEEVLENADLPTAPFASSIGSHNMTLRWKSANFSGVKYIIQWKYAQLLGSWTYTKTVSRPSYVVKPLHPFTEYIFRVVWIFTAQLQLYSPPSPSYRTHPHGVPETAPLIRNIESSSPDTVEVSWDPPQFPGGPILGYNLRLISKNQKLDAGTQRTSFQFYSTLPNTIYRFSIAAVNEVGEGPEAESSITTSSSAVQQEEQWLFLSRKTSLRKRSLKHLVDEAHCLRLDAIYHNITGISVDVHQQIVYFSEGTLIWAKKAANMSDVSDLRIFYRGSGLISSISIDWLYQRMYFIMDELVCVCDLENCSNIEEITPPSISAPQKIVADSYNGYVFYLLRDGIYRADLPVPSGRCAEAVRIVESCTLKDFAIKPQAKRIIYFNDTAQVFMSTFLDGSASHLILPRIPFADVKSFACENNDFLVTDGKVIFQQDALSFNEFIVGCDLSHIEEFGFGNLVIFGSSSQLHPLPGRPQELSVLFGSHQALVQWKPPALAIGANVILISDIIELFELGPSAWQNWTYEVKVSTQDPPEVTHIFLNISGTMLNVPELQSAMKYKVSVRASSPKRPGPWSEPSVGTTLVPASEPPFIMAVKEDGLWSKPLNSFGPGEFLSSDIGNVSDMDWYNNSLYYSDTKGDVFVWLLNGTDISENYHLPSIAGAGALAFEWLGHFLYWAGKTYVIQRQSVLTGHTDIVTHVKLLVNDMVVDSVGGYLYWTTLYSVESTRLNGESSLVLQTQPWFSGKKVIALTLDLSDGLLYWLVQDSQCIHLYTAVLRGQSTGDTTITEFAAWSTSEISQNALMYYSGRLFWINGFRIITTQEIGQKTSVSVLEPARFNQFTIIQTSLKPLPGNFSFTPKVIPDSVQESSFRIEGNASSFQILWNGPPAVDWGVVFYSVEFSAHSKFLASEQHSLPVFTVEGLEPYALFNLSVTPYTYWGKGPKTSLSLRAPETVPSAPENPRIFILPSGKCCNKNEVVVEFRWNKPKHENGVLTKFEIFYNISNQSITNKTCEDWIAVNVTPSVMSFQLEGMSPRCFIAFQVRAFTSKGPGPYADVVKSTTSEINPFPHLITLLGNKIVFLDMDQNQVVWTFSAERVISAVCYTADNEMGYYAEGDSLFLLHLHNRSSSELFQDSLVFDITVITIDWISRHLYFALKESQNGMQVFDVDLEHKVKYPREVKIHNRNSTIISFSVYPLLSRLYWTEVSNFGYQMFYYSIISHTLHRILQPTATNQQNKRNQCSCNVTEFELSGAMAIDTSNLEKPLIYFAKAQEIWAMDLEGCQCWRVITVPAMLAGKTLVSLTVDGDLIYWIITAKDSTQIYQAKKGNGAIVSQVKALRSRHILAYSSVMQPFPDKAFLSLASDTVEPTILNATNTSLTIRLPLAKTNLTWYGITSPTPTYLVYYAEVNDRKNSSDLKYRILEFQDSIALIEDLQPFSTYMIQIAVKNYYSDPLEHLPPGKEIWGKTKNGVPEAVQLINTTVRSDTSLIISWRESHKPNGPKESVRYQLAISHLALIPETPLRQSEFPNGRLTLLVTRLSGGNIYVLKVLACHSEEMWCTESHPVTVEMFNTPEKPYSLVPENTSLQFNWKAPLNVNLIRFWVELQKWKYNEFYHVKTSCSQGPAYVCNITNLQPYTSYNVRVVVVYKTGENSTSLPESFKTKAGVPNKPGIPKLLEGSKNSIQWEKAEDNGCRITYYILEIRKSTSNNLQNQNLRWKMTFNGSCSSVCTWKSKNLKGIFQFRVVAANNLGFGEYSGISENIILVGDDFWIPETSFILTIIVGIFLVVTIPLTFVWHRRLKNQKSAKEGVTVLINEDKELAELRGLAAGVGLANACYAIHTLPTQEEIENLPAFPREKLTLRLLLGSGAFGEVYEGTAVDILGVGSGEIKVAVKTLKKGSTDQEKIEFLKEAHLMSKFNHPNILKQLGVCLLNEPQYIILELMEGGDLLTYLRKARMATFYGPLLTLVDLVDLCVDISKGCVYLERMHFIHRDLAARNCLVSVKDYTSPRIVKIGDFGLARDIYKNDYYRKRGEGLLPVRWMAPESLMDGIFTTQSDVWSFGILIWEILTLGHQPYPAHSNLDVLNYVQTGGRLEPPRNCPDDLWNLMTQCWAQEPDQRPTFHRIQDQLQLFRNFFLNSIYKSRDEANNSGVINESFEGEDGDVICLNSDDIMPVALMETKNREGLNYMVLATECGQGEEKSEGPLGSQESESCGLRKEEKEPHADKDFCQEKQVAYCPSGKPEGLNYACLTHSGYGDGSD
Procedure: as §1

Sequence of BRAF (P15056 whole entry): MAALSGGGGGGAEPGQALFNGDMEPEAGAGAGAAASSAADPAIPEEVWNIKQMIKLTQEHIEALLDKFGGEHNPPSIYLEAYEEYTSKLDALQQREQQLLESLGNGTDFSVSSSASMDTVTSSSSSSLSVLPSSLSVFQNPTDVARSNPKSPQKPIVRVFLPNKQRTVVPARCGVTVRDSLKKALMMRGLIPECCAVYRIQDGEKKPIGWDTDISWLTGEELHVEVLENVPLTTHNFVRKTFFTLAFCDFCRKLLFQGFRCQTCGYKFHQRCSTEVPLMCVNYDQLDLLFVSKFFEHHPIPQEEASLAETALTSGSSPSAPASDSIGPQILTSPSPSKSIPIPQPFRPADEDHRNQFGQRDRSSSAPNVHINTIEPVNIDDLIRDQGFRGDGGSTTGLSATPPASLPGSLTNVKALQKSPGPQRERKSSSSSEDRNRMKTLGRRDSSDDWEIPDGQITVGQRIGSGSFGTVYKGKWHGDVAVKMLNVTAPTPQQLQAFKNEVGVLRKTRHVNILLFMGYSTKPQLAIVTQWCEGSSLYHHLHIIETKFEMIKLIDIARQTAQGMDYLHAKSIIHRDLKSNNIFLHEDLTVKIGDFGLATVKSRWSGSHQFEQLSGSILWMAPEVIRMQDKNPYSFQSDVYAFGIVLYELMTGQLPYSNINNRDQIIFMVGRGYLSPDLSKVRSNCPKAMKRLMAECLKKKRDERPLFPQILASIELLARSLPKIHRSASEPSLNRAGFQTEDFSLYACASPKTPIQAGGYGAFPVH

C[C@H](O)CNc1nccc(-n2ccnc2Cc2cccc(NC(=O)Nc3ccc(C(F)(F)F)c(Cl)c3)c2)n1 [Example 23, (S)-1-(3-chloro-4-(trifluoromethyl)phenyl)-3-(3-((1-(2-((2-hydroxypropyl)amino)pyrimidin-4-yl)-1H-imidazol-2-yl)methyl)phenyl)urea]
Inhibition Rate (Unit: %) BRAF (BRAF; 10 µM): 99.9% | inhibition at 10 µM (BRAF; read-out: Inhibition Rate (Unit: %) BRAF): 99% | inhibition at 10 µM (FGFR3): 3.5% | inhibition at 10 µM (ABL1): 6.9% | inhibition at 10 µM (AKT1): 12.9% | inhibition at 10 µM (RON/MST1R): 0.42% | inhibition at 10 µM (JAK3): 0% | Inhibition Rate (Unit: %) PKA (PKA): 0% | inhibition at 10 µM (SYK): 0% | inhibition at 10 µM (ROS/ROS1): 0.73%
